Experimental data taken from US20210137903A1, “ANTI-ANDROGENS FOR THE TREATMENT OF PROSTRATE CANCER” (priority 2019, published 2021).

Experiments:
[1] = tested on: high-risk nmCRPC; test: Phase 3 SPARTAN registration study, apalutamide 240 mg once daily vs placebo; type: in vivo, human
Excerpt: This study was a randomized, double-blind, placebo-controlled, multicenter trial that evaluated apalutamide treatment in patients with high-risk nmCRPC. […] All patients continued to receive ongoing androgen-deprivation therapy (GnRHa or surgical castration).

[2] = Example 1 relative bioavailability study: safety evaluations; type: in vivo, human
Experimental: Safety: Safety was evaluated throughout the study by means of adverse events (AEs), laboratory safety (hematology and serum chemistry), electrocardiograms (ECGs), vital signs (blood pressure, pulse, respiratory rate, and body temperature), and physical examinations (see the Time and Events Schedule in FIG. 1 for details).
Safety: Baseline for all laboratory evaluations, 12-lead ECG measurements, and vital signs were defined as the last evaluation done before the first study drug administration. Safety was evaluated by examining the incidence and type of adverse events, and changes in clinical laboratory test values, physical examination results, 12-lead ECGs, and vital sign measurements from the screening phase through study completion, including the washout intervals and the End-of-Study visit.
All subjects who were randomly assigned to treatment and received at least one dose of the study drug were included in the safety analysis.
The verbatim terms used in the CRF by investigators to identify adverse events was coded using the Medical Dictionary for Regulatory Activities (MedDRA). All reported adverse events with onset during the treatment phase (ie, treatment-emergent adverse events, and adverse events that have worsened since baseline) were included in the analysis. For each adverse event, the percentage of subjects who experience at least 1 occurrence of the given event was summarized by treatment group.
The severity assessment for an adverse event/serious adverse event was completed using the NCI-CTCAE Version 5.0. Any adverse event/serious adverse event not listed in the NCI-CTCAE was graded by the investigator using the standard grades as follows: […]

## CNC(=O)c1ccc(N2C(=S)N(c3cnc(C#N)c(C(F)(F)F)c3)C(=O)C23CCC3)cc1F [apalutamide, 4-[7-(6-cyano-5-trifluoromethylpyridin-3-yl)-8-oxo-6-thioxo-5,7-diazaspiro[3.4]oct-5-yl]-2-fluoro-N-methylbenzamide]
[1]; 192 subjects
  subjects with documented PSA progression: 24%
[1]; TEAE incidence
  arthralgia: 16%
  diarrhea: 20%
  fatigue: 30%
  hypertension: 25%
  nausea: 18%
  weight decreased: 16%
[1]; TEAE incidence, all grades
  fall: 16%
  skin rash (grouped term): 24%
[1]; all grades
  fracture: 12%
  hypothyroidism: 8.1%
  seizure: 0.2%
[1]; in vivo
  Grade 3 skin rashes: 5.2%
  decrease of risk of PSA progression compared with placebo: 94%
  incidence of AEs of special interest: 42%
  longer median metastasis-free survival over placebo: 2 years
  lower limit of the 95% CI for the median time to PSA progression: 36.8 months
  median time to PSA progression: not estimable
  subjects who discontinued treatment due to TEAEs: 11%
  subjects with Grade 3-4 TEAEs: 45%
  subjects with serious adverse events (SAEs): 25%
  subjects with treatment-emergent adverse events: 97%
  total PSA response (confirmed and unconfirmed): 93%
[1]; subjects in apalutamide arm
  confirmed prostate-specific antigen (PSA) response: 90%
[1]; vs placebo, 95% CI: 0.052, 0.080
  HR for PSA progression: 0.064
[2]; in vivo
  deaths or serious TEAEs: no deaths or serious TEAEs
  overall safety and tolerability of 240 mg as whole tablets and as dispersed tablets in applesauce: safe and generally well tolerated
  subjects with QTcB or QTcF increase of >60 ms from baseline: No subjects
  subjects with QTcB or QTcF values of >480 ms: No subjects
[2]; n (%)
  AE leading to treatment discontinuation: 1 (8.3%)
  AE leading to treatment discontinuation: >=Grade 3: 0
  AE leading to treatment discontinuation: Drug-related to Treatment A: 0
  AE leading to treatment discontinuation: Drug-related to Treatment B: 1 (8.3%)
  AE leading to treatment discontinuation: Grade 1: 1 (8.3%)
  AE leading to treatment discontinuation: Grade 2: 0
  Serious TEAE: >=Grade 3: 0
  Serious TEAE: Drug-related to Treatment A: 0
  Serious TEAE: Drug-related to Treatment B: 0
  Serious TEAE: Grade 1: 0
  Serious TEAE: Grade 2: 0
  Serious Treatment Emergent Adverse Events: 0
  Treatment Emergent Adverse Events: Drug-related to Treatment A: 4 (33.3%)
  Treatment Emergent Adverse Events: Drug-related to Treatment B: 4 (33.3%)
  subjects with TEAE gynecomastia: 3 (25.0%)
  subjects with sexual side effects: 3 (25.0%)
[2]; n (%) of subjects treated
  Treatment Emergent Adverse Events, subjects: 5 (41.7%)
[2]; worst grade, n (%)
  Treatment Emergent Adverse Events: >=Grade 3: 0
  Treatment Emergent Adverse Events: Grade 1: 4 (33.3%)
  Treatment Emergent Adverse Events: Grade 2: 1 (8.3%)
